Entries after “also recorded” stand apart in the source; their conditions may differ.
Assays:
[1] = test system: HTR2C RNA editing; test: Dose-dependent alterations of HTR2C RNA editing profile in SH-SY5Y cells; assay type: cell-based, human; details: compared to vehicle-treated cells
Protocol: Prior to the experiment, the human neuroblastoma cell line (SH-SY5Y) was treated with an increasing dose of interferon and RNA editing of 5HT2cR was measured using NGS based approach.
The RNA editing profiles represent the respective relative proportion of HTR2C RNA editing as compared to vehicle-treated SH-SY5Y cells.

[2] = annotation of the molecule (low/no risk versus high/at risk); cited from earlier work
[3] = test system: HTR2C RNA editing; test: Time course of HTR2C RNA editing in SH-SY5Y cells with risk score by the most preferred algorithm (prob(Algorithm)); assay type: cell-based, human; details: for prob(Algorithm) risk score / prediction: SH-SY5Y, HTR2C; for time course of HTR2C RNA editing profile: SH-SY5Y cells, 12-48 h; for risk score over time points: most preferred algorithm, each time point
[4] = test system: ADAR1a mRNA expression; test: Relative ADAR1a mRNA expression by quantitative PCR in treated SH-SY5Y cells; assay type: cell-based, human; details: 48 hours
Protocol: After cDNA synthesis samples were stored at 4° C. prior analysis of ADAR1a mRNA expression by qPCR on a LC480 system (Roche). qPCR data were quantified using the standard curve method. mRNA expression of ADAR1a is known to be induced by Interferon alpha treatment (IFNα). […] In this way, all samples of the same batch could be analysed in a single qPCR run. […] This response could be seen in all biological replicates (n=5). […] The coefficient of variation of 9.31% clearly illustrates the reproducibility of the biological phenomenon.

For `CNC1(c2ccccc2Cl)CCCCC1=O` (centres unmarked) [Ketamine], the “dose dependence of 5-HT2cR/HTR2C RNA editing profile” value [1] is listed as “Dose-dependent alterations of RNA editing profiles” and the “risk class to induce psychiatric adverse side effect in a patient” value (“risk class” below) [2] is listed as “low risk”.

In the case of `CCN(CC)CC(=O)Nc1c(C)cccc1C` [Lidocaine], the “risk class” value [2] is given as “low or no risk”.

For `CC1=C(/C=C/C(C)=C/C=C/C(C)=C\C(=O)O)C(C)(C)CCC1` [Isotretinoin], the “risk class” value [2] is listed as “at risk”.

In the case of `CN[C@H]1CC[C@@H](c2ccc(Cl)c(Cl)c2)c2ccccc21` [Sertraline], the “dose dependence of 5-HT2cR/HTR2C RNA editing profile” value [1] is given as “Dose-dependent alterations of RNA editing profiles” and the “risk class” value [2] is given as “at risk”.

In the case of `CNCCC(Oc1ccc(C(F)(F)F)cc1)c1ccccc1` (centres unmarked) [Fluoxetine], the “risk class” value [2] is listed as “high risk”.

For `O=C1CCc2ccc(OCCCCN3CCN(c4cccc(Cl)c4Cl)CC3)cc2N1` [Aripiprazole], the “prob(Algorithm) risk score” value ([3]; 12 h treatment) was 0.528, the prediction ([3]; 24 h treatment) was “Pos” and the “prob(Algorithm) risk score” value ([3]; 24 h treatment) was 0.632. For the same molecule, the prediction ([3]; 48 h treatment) was “Pos”, the “prob(Algorithm) risk score” value ([3]; 48 h treatment) was 0.760 and the “time course of HTR2C RNA editing profile” value [3] was “time-dependent alterations of the RNA editing profile”. For the same molecule, the “risk score over time points” value [3] was “identified positively at risk starting from 24 hours and beyond” and the “risk class” value [2] was “at risk”.

With `COC(=O)[C@H]1[C@H]2C[C@@H]3c4[nH]c5cc(OC)ccc5c4CCN3C[C@H]2C[C@@H](OC(=O)c2cc(OC)c(OC)c(OC)c2)[C@@H]1OC` [molecule 165] the “effect on ADAR1a mRNA expression” value [4] was “induced ADAR1a mRNA expression; also recorded: strong increase of ADAR1a mRNA expression levels”.

For `NC(=O)c1ncn([C@@H]2O[C@H](CO)[C@@H](O)[C@H]2O)n1` [Ribavirin], the “risk class” value [2] is given as “low risk”.

For `C[C@H](NC(=O)C(C)(C)Oc1ccc(C(F)(F)F)cn1)[C@@H](Cc1ccc(Cl)cc1)c1cccc(C#N)c1` [Taranabant], the “risk class” value [2] is given as “at risk”.

In the case of `COC(=O)[C@H]1[C@H]2C[C@@H]3c4[nH]c5cc(OC)ccc5c4CCN3C[C@H]2C[C@@H](OC(=O)c2cc(OC)c(OC)c(OC)c2)[C@@H]1OC` [Reserpine], the “effect on ADAR1a mRNA expression” value [4] is reported as “consistently increase ADAR1a mRNA levels”, the prediction ([3]; 12 h treatment) is reported as “Pos” and the “prob(Algorithm) risk score” value ([3]; 12 h treatment) is reported as 0.878. The prediction ([3]; 24 h treatment) was “Pos”, the “prob(Algorithm) risk score” value ([3]; 24 h treatment) was 0.986 and the prediction ([3]; 48 h treatment) was “Pos”. For the same molecule, the “prob(Algorithm) risk score” value ([3]; 48 h treatment) was 0.976, the “time course of HTR2C RNA editing profile” value [3] was “time-dependent alterations of the RNA editing profile” and the “risk score over time points” value [3] was “risk scores were high at all time points”. For the same molecule, the “risk class” value [2] was “high risk”.

For `[Li]` [Lithium], the “risk class” value [2] is listed as “low risk”.
